According to patent publication US7445892B2, “Method of testing anticancer agent-sensitivity of tumor cells” (Eisai Co., Ltd., priority 2000, dated 2008):

Tested on: HCT116-C9
Assay: Gene expression analysis using DNA microarray (GeneChip Hu6800)
Type: cell-based, human
Details: HCT116-C9, 8 μM, 12 hours, compared with cells without drug; change of 1.8 times or more counted
Experimental: All cells were cultured in RPMI-1640 medium supplemented with 10% of fetal bovine serum, 100 units/ml of penicillin and 100 μg/ml of streptomycin at 37° C. under 5% CO2.
E7070, or ER-35748 or ER-68487 represented by the structural formula shown below was added to the media of an E7070-susceptible strain HCT116-C9 and an E7070-resistant strain HCT116-C9-C1 at a concentration of 8 μM and the cells were cultured. Then, cells were recovered after 0, 3, 6 and 12 hours. Further, the cells were also cultured for 12 hours without adding the drug and recovered.
Total RNA was extracted from these cells and subjected to the subsequent analyses. The RNA extracted from the cells cultured for 12 hours with the drug and the RNA from extracted the cells cultured for 12 hours without the drug were used for the gene expression analysis using a DNA microarray described in Example 2. HCT116-C9 was a substrain isolated from HCT116 derived from human colon cancer (American Type Culture Collection, Manassas, Va., U.S.A.), and HCT116-C9-C1 was an E7070-resistant substrain obtained by culturing this HCT116-C9 in the presence of E7070 with gradually increasing the E7070 concentration.
Total RNA was extracted from the recovered cells by using TRIZOL Reagent (Life Technologies Oriental) according to the attached operation manual.
Each RNA obtained in Example 1 was dissolved in 100 μl of sterilized water treated with diethyl pyrocarbonate (DEPC) and further purified by using RNeasy Column (QIAGEN), and double-stranded cDNA was synthesized by using SuperScript Choice System (Life Technologies Oriental) and a T7-d(T)24 primer.
First, to 10 μg of RNA, 5 μM T7-d(T)24 primer, 1×First strand buffer, 10 mM DTT, 500 μM dNTP mix and 20 units/μl of SuperScript II Reverse Transcriptase were added and the mixture was allowed to react at 42° C. for 1 hour to synthesize single-stranded DNA. Subsequently, to the DNA, 1×Second strand buffer, 200 μM dNTP mix, 67 U/ml of DNA ligase, 270 U/ml of DNA polymerase I and 13 U/ml of RNase H were added and the mixture was allowed to react at 16° C. for 2 hours to synthesize double-stranded cDNA. Further, to the cDNA, 67 U/ml of T4 DNA polymerase I was added and the mixture was allowed to react at 16° C. for 5 minutes and then 10 μl of 0.5 M EDTA was added to terminate the reaction.
The obtained cDNA was purified with phenol/chloroform, and a labeling reaction with biotinylated UTP and CTP was carried out by using RNA Transcript Labeling Kit (Enzo Diagnostics) according to the attached operation manual. The reaction product was purified with Rneasy Column and heated in 200 mM Tris/acetate buffer (pH 8.1), 150 mM magnesium acetate, 50 mM potassium acetate at 94° C. for 35 minutes to obtain fragment cRNA.
The fragmented cRNA was hybridized with GeneChip Hu6800 (Affymetrix) in 100 mM MES, 1 M sodium salt, 20 mM EDTA and 0.01% Tween 20 at 45° C. for 16 hours. After the hybridization, the GeneChip was washed and stained according to the protocol EukGE-WS2 attached to Affymetrix Fluidics Station. For the staining, streptavidin-phycoerythrin and biotinylated goat anti-streptavidin antibody were used. The stained GeneChip was scanned by using HP Argon Ion Laser Confocal Scanner (Hewlett Packard) to measure its fluorescence intensity. The fluorescence was measured at 570 nm by using an excitation light at 488 nm.
The quantitative data analyses were all conducted by using GeneChip Software (Affymetrix). To quantify RNA, an average of “differences [(Perfect match hybridization signal)−(Mismatch signal)]” was obtained for each probe family.
E7070, or ER-35748 or ER-68487 was added to a medium for HCT116-C9 at a concentration of 8 μM and culture was performed. The results of analysis of RNA extracted from the cells at 12 hours by using GeneChip were compared with the results of RNA analysis for HCT116-C9 cells obtained in the same manner except for not adding the drug. […]

| Structure (SMILES) | expression levels of the genes listed in Table 1 | expression levels of the genes listed in Table 2 |
| --- | --- | --- |
| N#Cc1ccc(S(=O)(=O)Nc2cccc3c(Cl)c[nH]c23)cc1 [ER-35748] | increased | decreased |
| N#Cc1ccc(S(=O)(=O)Nc2cccc3c(C#N)c[nH]c23)cc1 [ER-68487] | increased | decreased |
